Three molecules from EP0490581B1, “Cosmetic composition” (UNILEVER PLC, priority 1990, dated 1992) can be followed below.

The subject of this test is isolated human hair follicles. Description: in vitro hair follicle growth test (elongation of isolated hair follicles in culture medium). Format: cell-based. How it is done: The effect of compounds on hair growth was assessed using an in vitro test which measures the elongation of isolated human hair follicles in a culture medium.
This test includes the important step of isolating hair follicles having an undamaged hair bulb from skin, preferably from human skin, by microdissection.
The critical step of separating the hair follicle with intact undamaged hair bulb from the subcutaneous fatty tissue in which it is situated accordingly involves severing the hair shaft of the follicle at a point below the epidermis of skin surface, so as to leave the hair bulb intact and undamaged while still bearing a portion of the hair shaft.
Preferably, the hair shaft of the follicle is severed at the dermal-subcutaneous fat interface.
Any suitable cutting instrument can be employed to sever the hair shaft in this manner, but a keratotome or a scalpel are preferred.
The hair bulb with a hair shaft stump attached is then isolated from the skin by mechanically separating the hair from loosely adhering subcutaneous fat which normally surrounds the hair bulb. This is achieved after the dermis or upper layer of the skin has been separated and removed, to avoid damaging the hair bulb as it is pulled away.
The hair bulb together with hair shaft stump attached, is then transferred in an otherwise undamaged and fully functioning, viable state to a nutrient medium.
The hair follicles isolated by the technique described herein are transferred to a suitable culture medium for subsequent testing of substances that can then influence their future development.
The procedure now to be described represents a preferred method of culture and testing of hair growth.
In accordance with the preferred method of culture, isolated hair follicles are maintained in 500µl of Williams E medium, either with or without a test hair growth substance, at 37°C in an atmosphere of 5% CO₂ + 95% air in individual wells of a 24 multiwell dish (Corning), which permits detailed measurements to be made of the length of individual hair follicles.
Williams E medium is available from FLOW Laboratory under Catalogue No. 12-502. The formula of Williams E medium is described by Williams GM, et al., in Experimental Cell Research 69 (1971) on page 106.
Hair shaft length measurements can be made on these follicles, using a Nikon Diaphot inverted binocular or similar microscope with eye piece measuring graticules, […], during which time the follicles will signficiantly increase in length in response to a hair growth stimulant.
The response of an isolated hair follicle to a test substance, can accordingly be assessed by mesuring the increase in length, if any, in the presence of a test substance against a control. […]

Each structure is given as a SMILES string.

`NC(=O)CC[C@H](N)C(=O)O` [Glutamine, glutamine]: the activity at 2000 µM (144 h, 2mM in Williams E medium supplemented with glucose (50mM), relative to a control value of 1.0, mean of 5 follicles from each of 5 human subjects (25 follicles), read-out: Hair follicle growth after 6 days) is 400%. Further, the “hair growth, as compared with the control” value (summary in words of the table's results, Williams E medium supplemented with glucose (50mM)) was “most effective”.
As for `CC(O)CC(=O)O` (stereo not shown) [Na 3-hydroxybutyrate], the activity at 1000 µM (144 h, 1 mM in Williams E medium supplemented with glucose (50mM), relative to a control value of 1.0, mean of 5 follicles from each of 5 human subjects (25 follicles), read-out: Hair follicle growth after 6 days) is 280%.
Take `CCCCCCCCCCCCCCCC(=O)O` [Na palmitate]: the activity at 500 µM (144 h, 0.5mM in Williams E medium supplemented with glucose (50mM), relative to a control value of 1.0, mean of 5 follicles from each of 5 human subjects (25 follicles), read-out: Hair follicle growth after 6 days) is 180%.
